Assay results published in PubChem BioAssay (NCI).
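Assay format: 96-well plates, 48-hour exposure. At the TGI there is no net growth.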

Experiments:
Assay in all cases: growth of human tumour cells (NCI), 48 h
786-0 renal = system: 786-0 renal
A498 renal = system: A498 renal
A549 NSCLC = system: A549 NSCLC
ACHN renal = system: ACHN renal
BT-549 breast = system: BT-549 breast
CAKI-1 renal = system: CAKI-1 renal
CCRF-CEM leukemia = system: CCRF-CEM leukemia
COLO 205 colon = system: COLO 205 colon
DU-145 prostate = system: DU-145 prostate
EKVX NSCLC = system: EKVX NSCLC
HCC-2998 colon = system: HCC-2998 colon
HCT-116 colon = system: HCT-116 colon
HCT-15 colon = system: HCT-15 colon
HL-60(TB) leukemia = system: HL-60(TB) leukemia
HOP-62 NSCLC = system: HOP-62 NSCLC
HOP-92 NSCLC = system: HOP-92 NSCLC
HS 578T breast = system: HS 578T breast
HT29 colon = system: HT29 colon
IGROV1 ovarian = system: IGROV1 ovarian
K-562 leukemia = system: K-562 leukemia
KM12 colon = system: KM12 colon
LOX IMVI melanoma = system: LOX IMVI melanoma
M14 melanoma = system: M14 melanoma
MALME-3M melanoma = system: MALME-3M melanoma
MCF7 breast = system: MCF7 breast
MDA-MB-231 breast = system: MDA-MB-231 breast
MDA-MB-435 = system: MDA-MB-435
MDA-N = system: MDA-N
MOLT-4 leukemia = system: MOLT-4 leukemia
NCI-H226 lung = system: NCI-H226 lung
NCI-H23 lung = system: NCI-H23 lung
NCI-H460 lung = system: NCI-H460 lung
NCI-H522 lung = system: NCI-H522 lung
OVCAR-3 ovarian = system: OVCAR-3 ovarian
OVCAR-4 ovarian = system: OVCAR-4 ovarian
OVCAR-5 ovarian = system: OVCAR-5 ovarian
OVCAR-8 ovarian = system: OVCAR-8 ovarian
PC-3 prostate = system: PC-3 prostate
RPMI-8226 leukemia = system: RPMI-8226 leukemia
RXF 393 renal = system: RXF 393 renal
SF-268 CNS = system: SF-268 CNS
SF-295 CNS = system: SF-295 CNS
SF-539 CNS = system: SF-539 CNS
SK-MEL-2 melanoma = system: SK-MEL-2 melanoma
SK-MEL-28 melanoma = system: SK-MEL-28 melanoma
SK-MEL-5 melanoma = system: SK-MEL-5 melanoma
SK-OV-3 ovarian = system: SK-OV-3 ovarian
SN12C renal = system: SN12C renal
SNB-19 CNS = system: SNB-19 CNS
SW-620 colon = system: SW-620 colon
T-47D breast = system: T-47D breast
TK-10 renal = system: TK-10 renal
U251 CNS = system: U251 CNS
UACC-257 melanoma = system: UACC-257 melanoma
UO-31 renal = system: UO-31 renal
NCI/ADR-RES ovarian = system: NCI/ADR-RES ovarian
SNB-75 CNS = system: SNB-75 CNS
SR leukemia = system: SR leukemia
UACC-62 melanoma = system: UACC-62 melanoma

Measured: TGI

CC1CC(=O)Nc2ccccc2N1C(=O)C1CC1 (stereo not given)
not listed: NCI/ADR-RES ovarian | SNB-75 CNS | SR leukemia | UACC-62 melanoma
> 100 µM: all other assays above

O=C(CCCn1ccnc1[N+](=O)[O-])NCCn1cnc([N+](=O)[O-])n1
not listed: EKVX NSCLC | HCC-2998 colon | MDA-MB-231 breast | SNB-19 CNS
> 100 µM: all other assays above
